The values below come from patent US5625032A, “Selective amylin antagonist peptides and uses therefor” (Amylin Pharmaceuticals, Inc., priority 1993, dated 1997).

Assay [1] deals with anesthetized rats. In words: Infusion studies: inhibition of amylin-induced changes in plasma glucose, lactate, calcium and blood pressure. Format: in vivo. The following applies: rat, i.v. 1.5 mg bolus then 3 mg/hr for 1.5 h; amylin 50 μg bolus + 50 μg/hour. As to the method: Briefly, these studies are performed on anesthetized rats as described in International Application Number PCT/US92/00185, "Amylin Activity Assays", published Jul. 22, 1992. At time -0.5 hours, test rats are infused with a 1.5 mg bolus of the antagonist being tested followed by antagonist infusion at 3 mg/hr for a further 1.5 hours. At time 0 hours, a 50 μg bolus of amylin is administered followed by amylin infusion at 50 μg/hr for the remainder of the experiment. In these tests, the capacity of the antagonist to block the hyperglycemic and hyperlactemic effects of amylin are indicated by the inhibition of amylin-evoked increases in plasma glucose and plasma lactate.
Amylin antagonists were evaluated in vivo for their ability to inhibit amylin-induced elevation of plasma glucose and plasma lactate and amylin-evoked depression of plasma calcium and blood pressure. Male Harlan Sprague Dawley rats (age 75-85 days, mass 300-350 g) fasted 18-20 hours were halothane anesthetized and cannulated via the saphenous vein for infusions/injections and via the femoral artery for sampling of glucose/lactate/calcium and for recording arterial pressure. One and a half hours after surgery they were infused with a 1.5 mg intravenous bolus of test antagonist, followed by an infusion of 3 mg/hour for a further 1.5 hours (t=-0.5→+1.0 hr). At t=0 hours (0.5 hours after the start of the primed/continuous antagonist infusion) a 50 μg intravenous bolus of rat amylin was administered followed by an infusion of 50 μg/hour which continued until the end of the experiment. Blood samples were collected every 10 minutes for the first 2 hours of the test (then less frequently),and mean arterial pressure was continuously recorded from t=-0.5→t=+0.5 hours. Control rats, not administered the test substance, were injected with either saline or with primed/continuous amylin at t=0 hours, as described above.

The test system of assay [2] is anesthetized rats. In words: Renin studies: inhibition of amylin-induced plasma renin activity. Particulars: rat, i.v. 0.5 mg then 1.0 mg/hour; amylin 10 μg subcutaneous bolus. It is filed as in vivo. As for the experimental part: The amylin antagonist AAP40 (SEQ ID NO:40) was evaluated in vivo for its ability to inhibit amylin-induced plasma renin activity. Male Harlan Sprague Dawley (age 77-82 days, mass 300-350 g) fasted 18-20 hours were halothane anesthetized and cannulated as described in Example 10. One and a half hours after surgery, one treatment group of 7 rats was administered amylin as a 10 μg subcutaneous bolus (t=0). Another treatment group of 6 rats was similarly treated except that they were also administered AAP40 (SEQ ID NO:40) (1 mg/mL) as a primed continuous intravenous infusion of 0.5 mg, then 1.0 mg/hour for a further 1.5 hours (t=-10 min to t=+120 min). Blood samples were collected at t=-30, 0, 30, 60 and 120 min for assessment of plasma renin activity using the INCStar GammaCoat [^125 I] plasma renin activity RIA kit (INCStar, Stillwater, Minn.; Cat. No. CA-533-553). Control rats, not administered AAP40 (SEQ ID NO:40), were injected with either saline or with primed/continuous amylin at t=0 hours, as described above.

The test system of a further assay is rat soleus muscle. The assay can be described thus: Soleus muscle assay: antagonism of 100 nM rat amylin on insulin-stimulated glycogenesis. Format: cell-based. Particulars: read-out: IC50, antagonism of amylin effect on insulin-stimulation of glycogenesis in skeletal muscle. As to the method: Rat soleus muscle preparations have been in use for many years to study muscle glycogen metabolism and are well known in the field. The soleus muscle assay can be used to measure or test for amylin antagonist activity in vitro. Assays of biological activity of amylin or amylin antagonist preparations in the soleus muscle are performed using previously described methods (e.g., Young, A. A. et al., Am. J. Physiol. 263:E274-281 (1992)).
In summary, while amylin or amylin agonist activity is assessed by measuring the incorporation of radiolabelled glucose into glycogen in soleus muscle in response to an amylin or other amylin agonist, amylin antagonist activity is assessed by measuring the reversal of this inhibition in the presence of 100 nM rat amylin and an amylin antagonist. Concentrations of peptide dissolved in carrier-free buffers are determined by quantitative amino acid analysis, as described herein. The ability of compounds to act as antagonists in this assay can also be evaluated by measuring IC50 values. Standard errors are determined by fitting of sigmoidal dose response curves using a four parameter logistic equation (De Lean, A., Munson, P. J., Guardabasso, V. and Rodbard, D. (1988) ALLFIT, Version 2.7, National Institute of Child Health and Human Development, N.I.H. Bethesda, Md., 1 diskette).
These assays involving the stimulation by insulin of glycogen synthesis in rat soleus muscle in vitro were performed as described by Young, A. A. et al., Am. J. Physiol. 263:E274-281 (1992). Rat amylin inhibited the insulin-stimulated incorporation of radiolabelled glucose into glycogen.
The effects of the peptide in the rat soleus muscle glycogenesis system were measured according to the following method. Insulin-stimulated radioglucose incorporation was measured as described above in the presence of 100 nM rat amylin to maximally suppress incorporation. Increasing concentrations of AAP30 (SEQ ID NO:30), AAP37 (SEQ ID NO:37) and AAP40 (SEQ ID NO:40) were added to test their antagonism of amylin, i.e., to increase radioglucose incorporation under these conditions.

Structures are written as SMILES. pIC50: −log10 of the molar value. Entries after “also recorded” stand apart in the source; their conditions may differ. Peptide text beside a SMILES is read from it.

As for `CC(=O)N[C@@H](C)C(=O)N[C@H](C(=O)N[C@@H](CCC(N)=O)C(=O)N[C@@H](CCCNC(=N)N)C(=O)N[C@@H](CC(C)C)C(=O)N[C@@H](C)C(=O)N[C@@H](CC(N)=O)C(=O)N[C@@H](CCC(=O)O)C(=O)N[C@@H](CC(C)C)C(=O)N[C@H](C(=O)N[C@@H](CCCNC(=N)N)C(=O)N[C@@H](CC(C)C)C(=O)N[C@@H](CCC(N)=O)C(=O)N[C@H](C(=O)N[C@@H](Cc1ccc(O)cc1)C(=O)N1CCC[C@H]1C(=O)N[C@@H](CCCNC(=N)N)C(=O)N[C@H](C(=O)N[C@@H](CC(N)=O)C(=O)N[C@H](C(=O)NCC(=O)N[C@@H](CO)C(=O)N[C@@H](CC(N)=O)C(=O)N[C@H](C(=O)N[C@@H](Cc1ccc(O)cc1)C(N)=O)[C@@H](C)O)C(C)C)[C@@H](C)O)[C@@H](C)O)C(C)C)[C@@H](C)O` [AAP40] (Ac-ATQRLANELVRLQTYPRTNVGSNTY-NH2), in the assay with anesthetized rats [1], the “effect on amylin-induced decrease in blood pressure (hypotension)” value is reported as “did not inhibit”, the “effect on amylin-induced decrease in plasma calcium (hypocalcemia)” value is given as “did not inhibit”, the “effect on amylin-induced increase in plasma glucose (hyperglycemia)” value was “suppressed; also recorded: prevent” and the “effect on amylin-induced increase in plasma lactate (hyperlactemia)” value was “suppressed; also recorded: prevent”. In the assay with anesthetized rats [2], the “effect on amylin-induced plasma renin activity” value is “effectively inhibits”. In the assay with rat soleus muscle, the pIC50 is 6.87.
